From patent publication US10576078B2 (Council of Scientific & Industrial Research, priority 2017, dated 2020) come the findings set out here.

Holding throughout (type): cell-based, Human
For test [1], the system named is CD34+ cells from imatinib-resistant patients (quiescent LSCs). Kind of test: CFSE assay of quiescent LSCs.
Test [2] relates to CD34+ population from CP-CML cells from imatinib-resistant patients. Kind of test: CD34+ count and apoptosis in CD34+ LSC population from imatinib-resistant CP-CML patients. The protocol: CD34^+ population from CP-CML cells from imatinib-resistant patients (n=3) were individually purified using a CD34 microbead kit (Miltenyi Biotech) and were treated with 5 μM CFZ or salinomycin for 48 h. Cells were then divided into two groups. One group was assessed by immunostaining for CD34 and the other group was stained with annexin V/PI and the cells were then analyzed by flow-cytometry. Salinomycin was used as positive control. **p<0.01, ***p<0.0001.
CD34^+ population from primary CP-CML cells from imatinib-resistant patients (n=3) were purified using a CD34 microbead kit. Cells were incubated with V or 2.5 μM CFZ for 96 h, stained with PE-conjugated anti-CD34 and FITC-conjugated anti-CD38 antibodies for specific subpopulation and apoptosis was analyzed by APC labeled annexin V and propidium iodide (PI) staining followed by flow-cytometry (FACSCalibur, BD biosciences). *p<0.05, **p<0.01.
The observed purity was 80-90%.
For assessing apoptosis in the CD34^+ population from CML patients, these cells were then treated as indicated in the figures and figure descriptions (FIG. 2A). At the end of treatment, cells from each treatment group were divided in two separate tubes. One group was stained with CD34-PE and the other group was stained with Annexin V FITC/PI antibodies.
For assessing apoptosis in CD34^+ CD38^+ and CD34^+ CD38^− subpopulations from CML patients, CD34^+ cells were isolated as above and were treated with V or 2.5 μM CFZ for 96 h and then stained with PE-conjugated anti-CD34, FITC-conjugated anti-CD38 antibodies for 30 min and then stained with Annexin V-APC/PI at room temperature for 15 minutes and then were gated into CD34^+38^+ and CD34^+38^− populations and apoptosis was assessed in a FACSAria flow cytometer.

The subject of test [3] is stat5b, HIF-1α, HIF-2α and CITED2 transcripts in CD34+ cells from imatinib-resistant patients. In words: QRT-PCR of stem cell factors in CD34+ CML cells. How it is done: CD34^+ cells isolated from IMT-resistant patients (n=3) were treated with CFZ (5 μM, 24 h) and stat5b, HIF-1α, HIF-2α and CITED2 transcripts were assessed by QRT-PCR (in triplicates). ***p<0.0001.
CD34+ cells were isolated from imatinib-resistant CP-CML cells as described above. Cells were then treated with vehicle (V; 0.1% DMSO) or CFZ (5 μM) for 24 h. Total RNA was isolated from CD34+ cells as described above, using TRI reagent. 2 μg total RNA was reverse transcribed using High-Capacity cDNA Reverse Transcription Kit (Applied Biosystems; Foster City, Calif.). Quantitative real-time PCRs (QRT-PCR) were performed on a LightCycler 480 System (Roche, Indianapolis, Ind.) using VeriQuest SYBR Green qPCR Master Mix (Affymetrix, Thermo Scientific). The QRT-PCR primers were designed using Universal ProbeLibrary Assay Design Center (Roche Life Science). Primer sequences (5′-3′) hSTAT5B-For-TGAAG […], hSTAT5B-Rev […] ACTG, hHIF-1α-For-[…], hHIF-1α-Rev-[…], hHIF-2α-For-[…], hHIF-2α-Rev-[…], hCITED-2-For-[…], hCITED-2-Rev-[…]. The data were analyzed by ΔΔCT method with GAPDH (GAPDH-For-[…], GAPDH-Rev-GCC […]) used as an internal control (FIG. 2F).

The subject of another test is K562 cells. In words: Megakaryocytic differentiation in K562 cells (May-Grünwald-Giemsa staining, CD61/CD41 flow cytometry). How it is done:
K562 cells were treated with CFZ for 120 h and May-Grünwald-Giemsa staining followed by light microscopy was used to assess cellular morphology. […] PMA was used as appositive control. Representative photomicrographs from two independent experiments (8 fields per treatment group) are shown.
FIG. 3B-3C in particular show CFZ induces megakaryocytic surface markers CD61 (early) and CD41 (late) in K562 cells. K562 cells were treated as indicated for 72 h (Phorbol myristate acetate (PMA) was used as positive control) and then were stained with IgG isotype control or CD61 (B) & CD41 (C) IgG antibodies and were analyzed by flowcytometry (n=3). ***p<0.0001. PMA was used as a positive control.
May-Grünwald Giemsa Staining: To assess the changes in nuclear morphology, cells treated with vehicle (0.1% DMSO), CFZ (indicated concentrations in FIG. 3A) or PMA (positive control; 10 ng/ml) for 120 h (FIG. 3A). Cells were then washed with phosphate buffer saline (PBS) and were attached to glass slides by cytospin. These slides were stained with Giemsa and May-Grünwald solution (Sigma) as per manufacturer's instruction. Cells were then visualized by microscopy.
Differentiation analyses by flow cytometry: K562 (FIG. 3B-C) or primary CP-CML cells (FIG. 3D-E) were treated with vehicle, CFZ and PMA as indicated in the respective figures and figure descriptions for 72 hrs. Cells were then harvested, washed, and centrifuged, resuspended in 100 μl PBS and were stained with CD41-FITC or CD61-PE antibodies for 30 min at room temperature (in dark). After incubation, the cells were washed and resuspended in 300 μl PBS and were analyzed on a FACSCalibur flow cytometer.
For orientation: A flow cytometer gives signals particle by particle.

The mark [4] stands for this setting: CD34+ cells from imatinib-resistant patients, CFZ 5 μM, 24 h.

The structures appear in SMILES notation.

With `CC(C)/N=c1\cc2n(-c3ccc(Cl)cc3)c3ccccc3nc-2cc1Nc1ccc(Cl)cc1` [CFZ, Clofazimine], in test [1] (96 h, annexin V), the “apoptosis in CFSE-bright cells” value is reported as “robust apoptosis” and the “apoptosis in CFSE-dim cells” value was “robust apoptosis”. Also, in test [1] (n=3, 96 h), the “CFSE-dim (dividing cell) population” value was “increased” and the “number of CFSE-bright (non-dividing) cells” value is given as “drastically reduced”. Also, in test [2] (2.5 μM CFZ, 96 h, n=3), the “apoptosis in committed CD34+38+ progenitor cells” value is “induced apoptosis” and the “apoptosis in primitive CD34+38− progenitor cells” value was “induced apoptosis”. In addition, in test [2] (imatinib-resistant CP-CML patients, n=3, 5 μM, 48 h), the “apoptosis in CD34+ LSC population” value is “induced apoptosis”. Also, the “CD34+ population” value in test [2] (imatinib-resistant patients, 5 μM, 48 h) is recorded as “reduces”. Besides, in test [3] (setting [4]), the CITED2 transcript result was “reduced”, the HIF-1α transcript result is reported as “reduced”, the HIF-2α transcript entry was “reduced” and the stat5b transcript entry is reported as “reduced”. In addition, the “stat5 mRNA expression” value in test [3] (FIG. 2F) was “suppressed”. In addition, in the test on K562 cells (1 μM, 120 h, May-Grünwald-Giemsa staining), the megakaryocytic differentiation phenotype result is reported as “induced”. Moreover, in the test on K562 cells (72 h), the “megakaryocytic surface marker CD41” value is “increased” and the “megakaryocytic surface marker CD61” value is “increased”.
